Measured values published in US11753407B2, “Compounds for treating spinal muscular atrophy” (PTC Therapeutics, Inc., priority 2012, dated 2023).

Experiments:
[1] = test system: Smn protein in SMA patient fibroblast cells (GM03813); experiment: Smn protein assay in cultured cells (SMN HTRF); assay type: cell-based, human; settings: SMA patient fibroblast cells, 48 hours; for EC1.5x for Smn protein expression: 7-point concentration curve, SMN HTRF, concentration producing 1.5 times Smn protein vs DMSO vehicle control; for maximum fold (Fold) increase of Smn protein: 7-point concentration data, fold relative to vehicle control
In short: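 Cells were cultured 72 h, seeded at 5,000/well and dosed with seven concentrations (3.16-fold apart) for 48 h. HTRF on lysates, read at 665 and 620 nm, gave blank-corrected ΔF values relative to DMSO. Potency is reported as EC1.5×, efficacy as maximal fold Smn increase.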

[2] = test system: SMN2 minigene mRNA (SMN2-A minigene) in HEK293H cells; experiment: SMN2 minigene mRNA splicing RT-qPCR assay in cultured cells; assay type: cell-based, human; settings: Homo sapiens, HEK293-H; concentration increasing full length SMN2 mRNA 1.5-fold relative to vehicle-treated cells; HEK293H cells with SMN2-A minigene, 24 hours, 7-point concentration data; read-out: EC1.5x for production of full length SMN2 mRNA
In short: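 EC1.5× values derive from a 24 h treatment of SMN2-A minigene HEK293H cells and GAPDH-normalized RT-qPCR of exon 7-included minigene mRNA relative to vehicle-treated cells.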

| melting point | Compound | EC1.5x for Smn protein expression [1] | maximum fold (Fold) increase of Smn protein [1] | EC (1.5-fold increase) [2] |
| --- | --- | --- | --- | --- |
| 256 to 258 °C | CN1CCC(c2ccc3nc(-c4ccc5nn(C)cc5c4)cc(=O)n3c2)CC1 [Compound 578, 2-(2-methyl-2H-indazol-5-yl)-7-(1-methylpiperidin-4-yl)-4H-pyrido[1,2-a]pyrimidin-4-one] | **** (an EC1.5x≤0.3 μM is indicated by four stars (****)) | ***** (a fold increase >1.65 is indicated by five stars (*****)) | < 0.1 µM |
| 277 to 280 °C | Cc1cn2cc(-c3cc(=O)n4cc(C5CCN(C)CC5)ncc4n3)ccc2n1 [Compound 579, 2-(2-methylimidazo[1,2-a]pyridin-6-yl)-7-(1-methylpiperidin-4-yl)-4H-pyrazino[1,2-a]pyrimidin-4-one] | *** (an EC1.5× between >0.3 μM and ≤1 μM is indicated by three stars (***)) | ***** (a fold increase >1.65 is indicated by five stars (*****)) | 0.1 to 0.3 µM |
| 255 to 258 °C | CCN1CCC(c2cn3c(=O)cc(-c4ccc5nc(C)cn5c4)nc3cn2)CC1 [Compound 580, 7-(1-ethylpiperidin-4-yl)-2-(2-methylimidazo[1,2-a]pyridin-6-yl)-4H-pyrazino[1,2-a]pyrimidin-4-one] | *** (an EC1.5× between >0.3 μM and ≤1 μM is indicated by three stars (***)) | ***** (a fold increase >1.65 is indicated by five stars (*****)) | < 0.1 µM |
| 250 to 252 °C | Cc1cn2cc(-c3cc(=O)n4cc(C5CCN(CCO)CC5)ncc4n3)ccc2n1 [Compound 581, 7-[1-(2-hydroxyethyl)piperidin-4-yl]-2-(2-methylimidazo[1,2-a]pyridin-6-yl)-4H-pyrazino[1,2-a]pyrimidin-4-one] | *** (an EC1.5× between >0.3 μM and ≤1 μM is indicated by three stars (***)) | ***** (a fold increase >1.65 is indicated by five stars (*****)) | 0.1 to 0.3 µM |
| 250 to 259 °C | Cc1cn2nc(-c3cc(=O)n4cc(N5CCC(N(C)CCO)CC5)cc(C)c4n3)cc2c(C)n1 [Compound 582, 2-(4,6-dimethylpyrazolo[1,5-a]pyrazin-2-yl)-7-{4-[(2-hydroxyethyl)(methyl)amino]piperidin-1-yl}-9-methyl-4H-pyrido[1,2-a]pyrimidin-4-one] | **** (an EC1.5x≤0.3 μM is indicated by four stars (****)) | ***** (a fold increase >1.65 is indicated by five stars (*****)) | < 0.1 µM |
| 231 to 241 °C | CCCNC1CCN(c2cc(C)c3nc(-c4cc5c(C)nc(C)cn5n4)cc(=O)n3c2)CC1 [Compound 583, 2-(4,6-dimethylpyrazolo[1,5-a]pyrazin-2-yl)-9-methyl-7-[4-(propylamino)piperidin-1-yl]-4H-pyrido[1,2-a]pyrimidin-4-one] | **** (an EC1.5x≤0.3 μM is indicated by four stars (****)) | ***** (a fold increase >1.65 is indicated by five stars (*****)) | < 0.1 µM |
| 200 to 203 °C | Cc1cn2nc(-c3cc(=O)n4cc(N5CCC(C)(N)CC5)ccc4n3)cc2c(C)n1 [Compound 584, 7-(4-amino-4-methylpiperidin-1-yl)-2-(4,6-dimethylpyrazolo[1,5-a]pyrazin-2-yl)-4H-pyrido[1,2-a]pyrimidin-4-one] | **** (an EC1.5x≤0.3 μM is indicated by four stars (****)) | ***** (a fold increase >1.65 is indicated by five stars (*****)) | < 0.1 µM |
| 160 to 162 °C | Cn1cc2cc(-c3cc(=O)n4cc(N5CCNCC5)ncc4n3)ccc2n1 [Compound 586, 2-(2-methyl-2H-indazol-5-yl)-7-(piperazin-1-yl)-4H-pyrazino[1,2-a]pyrimidin-4-one] | **** (an EC1.5x≤0.3 μM is indicated by four stars (****)) | ***** (a fold increase >1.65 is indicated by five stars (*****)) | 0.1 to 0.3 µM |
| 214 to 216 °C | CCN1CCN(c2cn3c(=O)cc(-c4ccc5nn(C)cc5c4)nc3cn2)CC1 [Compound 590, 7-(4-ethylpiperazin-1-yl)-2-(2-methyl-2H-indazol-5-yl)-4H-pyrazino[1,2-a]pyrimidin-4-one] | ** (an EC1.5× between >1 μM and ≤3 μM is indicated by two stars (**)) | **** (a fold increase between >1.5 and ≤1.65 is indicated by four stars (****)) | 0.3 to 1 µM |
| 200 to 202 °C | Cn1cc2cc(-c3cc(=O)n4cc(N5CCN(CCO)CC5)ncc4n3)ccc2n1 [Compound 591, 7-[4-(2-hydroxyethyl)piperazin-1-yl]-2-(2-methyl-2H-indazol-5-yl)-4H-pyrazino[1,2-a]pyrimidin-4-one] | ** (an EC1.5× between >1 μM and ≤3 μM is indicated by two stars (**)) | **** (a fold increase between >1.5 and ≤1.65 is indicated by four stars (****)) | 0.3 to 1 µM |
| 249 to 251 °C | Cc1cn2cc(-c3cc(=O)n4cc(C5CCN(C)CC5)ncc4n3)cc(C)c2n1 [Compound 592, 2-(2,8-dimethylimidazo[1,2-a]pyridin-6-yl)-7-(1-methylpiperidin-4-yl)-4H-pyrazino[1,2-a]pyrimidin-4-one] | *** (an EC1.5× between >0.3 μM and ≤1 μM is indicated by three stars (***)) | ***** (a fold increase >1.65 is indicated by five stars (*****)) | 0.1 to 0.3 µM |
| 242 to 244 °C | CCN1CCC(c2cn3c(=O)cc(-c4cc(C)c5nc(C)cn5c4)nc3cn2)CC1 [Compound 593, 2-(2,8-dimethylimidazo[1,2-a]pyridin-6-yl)-7-(1-ethylpiperidin-4-yl)-4H-pyrazino[1,2-a]pyrimidin-4-one] | **** (an EC1.5x≤0.3 μM is indicated by four stars (****)) | ***** (a fold increase >1.65 is indicated by five stars (*****)) | < 0.1 µM |
| 242 to 244 °C | Cc1cn2cc(-c3cc(=O)n4cc(C5CCN(CCO)CC5)ncc4n3)cc(C)c2n1 [Compound 594, 2-(2,8-dimethylimidazo[1,2-a]pyridin-6-yl)-7-[1-(2-hydroxyethyl)piperidin-4-yl]-4H-pyrazino[1,2-a]pyrimidin-4-one] | *** (an EC1.5× between >0.3 μM and ≤1 μM is indicated by three stars (***)) | **** (a fold increase between >1.5 and ≤1.65 is indicated by four stars (****)) | 0.1 to 0.3 µM |
| 243 to 245 °C | Cc1cn2cc(-c3cc(=O)n4cc(C5CCN(C(C)C)CC5)ncc4n3)cc(Cl)c2n1 [Compound 595, 2-(8-chloro-2-methylimidazo[1,2-a]pyridin-6-yl)-7-[1-(propan-2-yl)piperidin-4-yl]-4H-pyrazino[1,2-a]pyrimidin-4-one] | **** (an EC1.5x≤0.3 μM is indicated by four stars (****)) | **** (a fold increase between >1.5 and ≤1.65 is indicated by four stars (****)) | < 0.1 µM |
| 228 to 236 °C | CCNC1CCN(c2cc(C)c3nc(-c4cc5c(C)nc(C)cn5n4)cc(=O)n3c2)CC1 [Compound 596, 2-(4,6-dimethylpyrazolo[1,5-a]pyrazin-2-yl)-7-[4-(ethylamino)piperidin-1-yl]-9-methyl-4H-pyrido[1,2-a]pyrimidin-4-one] | **** (an EC1.5x≤0.3 μM is indicated by four stars (****)) | **** (a fold increase between >1.5 and ≤1.65 is indicated by four stars (****)) | < 0.1 µM |
| 218 to 227 °C | Cc1cn2nc(-c3cc(=O)n4cc(N5CCC(N(CCO)CCO)CC5)cc(C)c4n3)cc2c(C)n1 [Compound 597, 7-{4-[bis(2-hydroxyethyl)amino]piperidin-1-yl}-2-(4,6-dimethylpyrazolo[1,5-a]pyrazin-2-yl)-9-methyl-4H-pyrido[1,2-a]pyrimidin-4-one] | *** (an EC1.5× between >0.3 μM and ≤1 μM is indicated by three stars (***)) | **** (a fold increase between >1.5 and ≤1.65 is indicated by four stars (****)) | 0.1 to 0.3 µM |

| Compound | melting point | EC1.5x for Smn protein expression [1] | maximum fold (Fold) increase of Smn protein [1] | EC (1.5-fold increase) [2] |
| --- | --- | --- | --- | --- |
| Cc1cn2cc(-c3cc(=O)n4cc(C5=CCN(CCO)CC5)ccc4n3)ccc2n1 [Compound 577, 7-[1-(2-hydroxyethyl)-1,2,3,6-tetrahydropyridin-4-yl]-2-(2-methylimidazo[1,2-a]pyridin-6-yl)-4H-pyrido[1,2-a]pyrimidin-4-one] | 248 to 250 °C | **** (an EC1.5x≤0.3 μM is indicated by four stars (****)) | ***** (a fold increase >1.65 is indicated by five stars (*****)) | < 0.1 µM |
